Five molecules from ChEMBL document CHEMBL1121935, “Syntheses and activities of antioxidant derivatives of retinoic acids” (1982) can be followed below.

Molecules are shown by their SMILES.

Holding throughout (assay type): functional, Cricetulus griseus
Common to all, as to conditions: Epithelial cell

The test system of assay [1] is Cricetinae gen. sp. As to the kind of experiment: In vitro inhibitory activity tested for reverse keratinization of epithelial cells in hamster trachael organ assay at 10E-9 M concentration; (Activity culture/total culture 419/474).
The subject of assay [2] is Cricetinae gen. sp. The assay can be described thus: In vitro inhibitory activity tested for reverse keratinization of epithelial cells in hamster trachael organ assay at 10E-9 M concentration; (Activity culture/total culture 1/7).
For assay [3], the system named is Cricetinae gen. sp. The assay can be described thus: In vitro inhibitory activity tested for reverse keratinization of epithelial cells in hamster trachael organ assay at 10E-9 M concentration; (Activity culture/total culture 1/6).
The test system of assay [4] is Cricetinae gen. sp. The assay can be described thus: In vitro inhibitory activity tested for reverse keratinization of epithelial cells in hamster trachael organ assay at 10E-9 M concentration; (Activity culture/total culture 2/7).

`CC1=C(/C=C/C(C)=C/C=C/C(C)=C/C(=O)O)C(C)(C)CCC1` [TRETINOIN] registered an inhibition at 0.001 µM with Cricetinae gen. sp. [1] of 88.4%.

In the assay on Cricetinae gen. sp. [2], `CC1=C(/C=C/C(C)=C/C=C/C(C)=C/C(=O)Oc2ccc(O)cc2C(C)(C)C)C(C)(C)CCC1` returned an inhibition at 0.001 µM of 14.3%.

In the assay with Cricetinae gen. sp. [3], `CC1=C(/C=C/C(C)=C/C=C/C(C)=C/C(=O)Oc2c(C)c(C)c3c(c2C)CC[C@@](C)(CCC[C@H](C)CCC[C@H](C)CCCC(C)C)O3)C(C)(C)CCC1` displayed an inhibition at 0.001 µM of 16.7%.

In the case of `CCOc1ccc2c(c1)C(C)=CC(C)(C)N2C(=O)/C=C(C)/C=C/C=C(C)/C=C/C1=C(C)CCCC1(C)C`, at 0.001 µM the inhibition with Cricetinae gen. sp. [4] was 28.6%.

In the assay with Cricetinae gen. sp. [3], `CC1=C(/C=C/C(C)=C/C=C/C(C)=C/C(=O)Oc2ccc(O)c(C(C)(C)C)c2)C(C)(C)CCC1` came in with an inhibition at 0.001 µM of 16.7%.

One may read the inhibition as the percentage by which the read-out fell short of the control. The low end stands for a response near the control, the high end for a response far below the control.
